The record followed here is US9006257B2, “Bicyclic compounds as mPGES-1 inhibitors” (Glenmark Pharmaceuticals S.A., priority 2012, dated 2015).

Broadly, the inhibition is how much of the control response was suppressed. The term IC50 denotes the concentration that inhibits the measured activity by half.

Where only a bound is given, the exact number is not on record here.

This assay addresses T1, Recombinant human mPGES-1 (Homo sapiens, UniProt O14684).
T1 construct: made in house; host or cells: CHO cells
T1 sequence (O14684 1-152): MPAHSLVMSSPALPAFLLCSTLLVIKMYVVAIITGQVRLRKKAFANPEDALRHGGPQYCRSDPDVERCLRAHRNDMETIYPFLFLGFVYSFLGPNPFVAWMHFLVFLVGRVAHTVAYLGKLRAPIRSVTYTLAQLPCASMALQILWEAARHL
Description: In-vitro mPGES-1 inhibitor screening (inhibition of PGE2 formation from PGH2, HTRF detection). The class given is biochemical. The settings on record: for inhibition at 1 µM: 1 μM test compound, read-out: Percentage inhibition at 1 μM; for inhibition at 1 µM / inhibition at 10 µM: crude microsomal fraction, 15 μM PGH2; for inhibition at 10 µM: 10 μM test compound, read-out: Percentage inhibition at 10 μM; for IC50: class symbol, concentration response curve. The text has this: In-Vitro Protocol for Screening of mPGES-1 Inhibitors:
mPGES-1 (microsomal prostaglandin E synthase-1) is a microsomal enzyme that converts endoperoxide substrate PGH2 (prostaglandin H2) to product PGE2 (prostaglandin E2) by isomerization in the presence of reduced glutathione (GSH). mPGES-1 inhibitors were screened by assessing their ability to inhibit formation of PGE2 from PGH2 in presence of mPGES-1 using an anti-PGE2 antibody based detection method. Recombinant human mPGES-1 was generated in-house by expression in CHO cells (Ouellet M et al. (2002), Protein Expression and Purification 26: 489-495). The assay was set up using crude microsomal fractions at protein concentration of 40-60 μg/mL. Test compounds were prepared in 100% dimethyl sulfoxide (DMSO) to obtain 20 mM stock solution and then diluted using assay buffer comprising 0.1 M Potassium phosphate buffer with 2 mM EDTA. The final concentration of DMSO in reaction was 0.5% (v/v). Negative controls were comprised of all assay reagents except the enzyme. Positive controls were comprised of the enzyme reaction in the absence of any inhibitor. Test compounds were incubated for 10 minutes in assay buffer containing 2.5 mM GSH and mPGES-1 enzyme followed by addition of PGH2 at a concentration of 15 μM for 1 minute. The reaction was stopped by addition of Stannous chloride (11 mg/ml) and PGE2 levels were measured (Masse F et al. (2005), Journal of Biomolecular Screening 10(6) 599-605., Goedken R E et al. (2008), Journal of Biomolecular Screening 13(7): 619-625) by HTRF kit (CisBio)).
Inhibition of mPGES-1 enzyme activity was measured using the percent of reaction occurring in the positive control. Concentration response curves were plotted using percent inhibition of maximum enzyme reaction. The IC50 value was calculated from the concentration response curve by nonlinear regression analysis using GraphPad PRISM software.
Background: Time-resolved FRET reads energy transfer from a long-lived donor to a nearby acceptor.

In the case of `CC1(C)CCC(Nc2ncnc3c(NC(=O)c4c(Cl)ccc(CNC(=O)C(C)(C)C)c4F)cccc23)CC1` [Example-22, 6-Chloro-N-(4-((4,4-dimethylcyclohexyl)amino)quinazolin-8-yl)-2-fluoro-3-(pivalamidomethyl)benzamide], the inhibition at 1 µM stood at 100%, the inhibition at 10 µM was 99.6% and the IC50 is under 50 nM.

Consider `O=C(Nc1cccc2c(Nc3cccc(C(F)(F)F)c3)ncnc12)c1c(Cl)ccc(CNC(=O)[C@@H]2CCCO2)c1F` [Example-23, (S)—N-(4-Chloro-2-fluoro-3-((4-((3-(trifluoromethyl)phenyl)amino)quinazolin-8-yl)carbamoyl)benzyl)tetrahydrofuran-2-carboxamide], for which the inhibition at 1 µM was determined as 95%, the inhibition at 10 µM came to 94.9% and the IC50 was under 50 nM.

Consider `CC1(C)CCC(Oc2ncnc3c(NC(=O)c4c(Cl)ccc(CNC(=O)C(C)(C)C)c4F)cccc23)CC1` [Example-24, 6-Chloro-N-(4-((4,4-dimethylcyclohexyl)oxy)quinazolin-8-yl)-2-fluoro-3-(pivalamidomethyl)benzamide], for which the inhibition at 1 µM is 99.3%, the inhibition at 10 µM is 99.8% and the IC50 is under 50 nM.

For the compound `CC(C)(C)C(=O)NCc1ccc(Cl)c(C(=O)Nc2cccc3c(Nc4ccc(F)c(C(F)(F)F)c4)ncnc23)c1F` [Example-25, 6-Chloro-2-fluoro-N-(4-((4-fluoro-3-(trifluoromethyl)phenyl)amino)quinazolin-8-yl)-3-(pivalamidomethyl)benzamide], the inhibition at 1 µM came to 97.7%, the inhibition at 10 µM turned out to be 98.3% and the IC50 is under 50 nM.

Consider `CC(C)(C)C(=O)NCc1ccc(Cl)c(C(=O)Nc2cccc3c(O[C@H]4CC[C@@H](C(F)(F)F)CC4)ncnc23)c1F` [Example-26, 6-Chloro-2-fluoro-3-(pivalamidomethyl)-N-(4-(((1s,4s)-4-(trifluoromethyl)cyclohexyl)oxy)quinazolin-8-yl)benzamide], for which the inhibition at 1 µM was found to be 93.4%, the inhibition at 10 µM was 93.1% and the IC50 is under 50 nM.

`CC(C)(C)C(=O)NCc1ccc(Cl)c(C(=O)Nc2cccc3c(O[C@H]4CC[C@H](C(F)(F)F)CC4)ncnc23)c1F` [Example-27, 6-Chloro-2-fluoro-3-(pivalamidomethyl)-N-(4-(((1r,4r)-4-(trifluoromethyl)cyclohexyl)oxy)quinazolin-8-yl)benzamide]: the inhibition at 1 µM came to 94.4%, the inhibition at 10 µM is 93.9% and the IC50 is under 50 nM.

For `CC(C)(C)C(=O)NCc1ccc(Cl)c(C(=O)Nc2cccc3c(Oc4cc(C(F)(F)F)ccc4F)ncnc23)c1F` [Example-28, 6-Chloro-2-fluoro-N-(4-(2-fluoro-5-(trifluoromethyl)phenoxy)quinazolin-8-yl)-3-(pivalamidomethyl)benzamide], the inhibition at 1 µM turned out to be 99.1%, the inhibition at 10 µM amounted to 100% and the IC50 is under 50 nM.

`CC(C)(C)C(=O)NCc1ccc(Cl)c(C(=O)Nc2cccc3c(Nc4ccc(C(F)(F)F)cc4F)ncnc23)c1F` [Example-29, 6-Chloro-2-fluoro-N-(4-((2-fluoro-4-(trifluoromethyl)phenyl)amino)quinazolin-8-yl)-3-(pivalamidomethyl)benzamide]: the inhibition at 1 µM turned out to be 99%, the inhibition at 10 µM turned out to be 99.8% and the IC50 is under 50 nM.

On to `CC(C)(C)C(=O)NCc1ccc(Cl)c(C(=O)Nc2cccc3c(Nc4ccc(C(F)(F)F)nc4)ncnc23)c1F` [Example-30, 6-Chloro-2-fluoro-3-(pivalamidomethyl)-N-(4-((6-(trifluoromethyl)pyridin-3-yl)amino)quinazolin-8-yl)benzamide], for which the inhibition at 1 µM is 97.4%, the inhibition at 10 µM is 99.1% and the IC50 is under 50 nM.

With `CC(C)(C)C(=O)NCc1ccc(Cl)c(C(=O)Nc2cccc3c(Nc4cccc(C(F)(F)F)c4)ccnc23)c1F` [Example-31, 6-Chloro-2-fluoro-3-(pivalamidomethyl)-N-(4-((3-(trifluoromethyl)phenyl)amino)quinolin-8-yl)benzamide], the inhibition at 1 µM came out at 98.7%, the inhibition at 10 µM was 98.7% and the IC50 is under 50 nM.

With `CC1(C)CCC(Nc2nc(C(F)(F)F)nc3c(NC(=O)c4c(Cl)ccc(CNC(=O)C(C)(C)C)c4F)cccc23)CC1` [Example-32, 6-Chloro-N-(4-((4,4-dimethylcyclohexyl)amino)-2-(trifluoromethyl)quinazolin-8-yl)-2-fluoro-3-(pivalamidomethyl)benzamide], the inhibition at 1 µM stood at 94.5%, the inhibition at 10 µM was 95.9% and the IC50 is under 50 nM.

As to `Cc1nc(Nc2cccc(C(F)(F)F)c2)c2cccc(NC(=O)c3c(Cl)ccc(CNC(=O)C(C)(C)C)c3F)c2n1` [Example-33, 6-Chloro-2-fluoro-N-(2-methyl-4-((3-(trifluoromethyl)phenyl)amino)quinazolin-8-yl)-3-(pivalamidomethyl)benzamide], the inhibition at 1 µM turned out to be 95.5%, the inhibition at 10 µM was 97.2% and the IC50 was under 50 nM.

Consider `O=C(Nc1cccc2c(Nc3cc(C(F)(F)F)ccc3F)ncnc12)c1c(F)cccc1Cl` [Example-34, 2-Chloro-6-fluoro-N-(4-((2-fluoro-5-(trifluoromethyl)phenyl)amino)quinazolin-8-yl)benzamide], for which the inhibition at 1 µM stood at 75.4%, the inhibition at 10 µM stood at 84% and the IC50 was over 100 nM.

In the case of `CC1(C)CCC(Oc2nccc3c(NC(=O)c4c(Cl)ccc(CNC(=O)C(C)(C)C)c4F)cccc23)CC1` [Example-35, 6-Chloro-N-(1-((4,4-dimethylcyclohexyl)oxy)isoquinolin-5-yl)-2-fluoro-3-(pivalamidomethyl)benzamide], the inhibition at 1 µM came to 100%, the inhibition at 10 µM came to 100% and the IC50 is under 50 nM.

Regarding `CC(C)(C)C(=O)NCc1ccc(Cl)c(C(=O)Nc2cccc3c(N[C@H]4CC[C@H](C(F)(F)F)CC4)nccc23)c1F` [Example-36, 6-Chloro-2-fluoro-3-(pivalamidomethyl)-N-(1-(((1r,4r)-4-(trifluoromethyl)cyclohexyl)amino)isoquinolin-5-yl)benzamide], the inhibition at 1 µM worked out at 98.1%, the inhibition at 10 µM came to 99.1% and the IC50 is under 50 nM.

As for `CC(C)(C)C(=O)NCc1ccc(Cl)c(C(=O)Nc2cccc3c(N[C@H]4CC[C@H](C(F)(F)F)CC4)ncnc23)c1F` [Example-37, 6-Chloro-2-fluoro-3-(pivalamidomethyl)-N-(4-(((1r,4r)-4-(trifluoromethyl)cyclohexyl)amino)quinazolin-8-yl)benzamide], the inhibition at 1 µM was determined as 97.7%, the inhibition at 10 µM was 96.3% and the IC50 is under 50 nM.

Turning to `CC(C)(C)C(=O)NCc1ccc(Cl)c(C(=O)Nc2cccc3c(O[C@H]4CC[C@H](C(F)(F)F)CC4)nccc23)c1` [Example-38, 2-Chloro-5-(pivalamidomethyl)-N-(1-(((1r,4r)-4-(trifluoromethyl)cyclohexyl)oxy)isoquinolin-5-yl)benzamide], the inhibition at 1 µM came out at 99.3%, the inhibition at 10 µM was determined as 99.9% and the IC50 is under 50 nM.

As for `CC(C)(C)C(=O)NCc1ccc(Cl)c(C(=O)Nc2cccc3c(O[C@H]4CC[C@H](C(F)(F)F)CC4)ncnc23)c1` [Example-39, 2-Chloro-5-(pivalamidomethyl)-N-(4-(((1r,4r)-4-(trifluoromethyl)cyclohexyl)oxy)quinazolin-8-yl)benzamide], the inhibition at 1 µM was 98%, the inhibition at 10 µM was 99.5% and the IC50 was under 50 nM.

For `CC(C)(C)C(=O)NCc1ccc(Cl)c(C(=O)Nc2cccc3c(Oc4cc(C(F)(F)F)ccc4F)ccnc23)c1F` [Example-40, 6-Chloro-2-fluoro-N-(4-(2-fluoro-5-(trifluoromethyl)phenoxy)quinolin-8-yl)-3-(pivalamidomethyl)benzamide], the inhibition at 1 µM stood at 99.3%, the inhibition at 10 µM stood at 98.5% and the IC50 is under 50 nM.

As for `CC(C)(C)C(=O)NCc1ccc(Cl)c(C(=O)Nc2cccc3c(Oc4cc(C(F)(F)F)ccc4F)nccc23)c1` [Example-41, 2-Chloro-N-(1-(2-fluoro-5-(trifluoromethyl)phenoxy)isoquinolin-5-yl)-5-(pivalamidomethyl)benzamide], the inhibition at 1 µM was 99%, the inhibition at 10 µM was found to be 97.6% and the IC50 is under 50 nM.
